# PubChem BioAssay AID2060333 (Molecular Pharmacology Branch, DTP, NCI, 2025)
# System: 845751-090-R-J2-PDC tumor spheroid viability
# Assay: Anticancer human tumor 845751-090-R-J2-PDC patient-derived head and neck squamous carcinoma cell line growth inhibition [IpAb]
# Conditions: spheroids with HUVEC and MSC; for IC50: curve of first compound; for viability, T/C: stronger effect = lower value
# Excerpt: Combinatorial screen of targeted agents with ipatasertib and abemaciclib in multi-cell type tumor spheroids
# A high-throughput screen of multi-cell type tumor spheroids was designed to identify active combinations of targeted small molecules and ipatasertib or abemaciclib. Complex spheroids include a stromal component modeled by human endothelial cells (HUVEC) and fibroblasts modeled by human mesenchymal stem cells (MSCs). The concentration ranges selected for each drug and investigational agent were based upon clinically achievable concentrations if the clinical Cmax of the agent was known.
# Compounds. The drugs and investigational agents: ipatasertib (NSC767898), abemaciclib(NSC768073), selumetinib (NSC741078), trametinib (758246), adavosertib (NSC754352), everolimus (NSC733504), sapanisertib (NSC764658), vemurafenib (NSC761431), venetoclax (NSC766270), copanlisib (NSC809693), apelisib (NSC765974), palbociblib (NSC758247), vemurafenib (NSC761431), dabrafenib (NSC764134), ravoxertinib (NSC781343), BMS-387032 (NSC767048), sotorasib (NSC818433), talazoparib (NSC767125) and afursertib (NSC778305), were obtained from the National Cancer Institute (NCI) Developmental Therapeutics Program Chemical Repository. The FDA-approved anticancer drug set is available from the NCI Developmental Therapeutics Program. […] The stock solutions were prepared in dimethyl sulfoxide (DMSO, Sigma-Aldrich, St. Louis, MO, cat. D2650) at 800-fold the tested concentration and stored at -70 degrees C prior to their use. All drugs and investigational agents were tested over a range starting from a high concentration at or near the clinical Cmax and decreasing in half-log increments. If the clinical Cmax for an agent had not been determined, the highest concentration tested was 10 microM.
# NCI60 Cell Culture. NCI60 cell lines were obtained from the NCI Developmental Therapeutics Program Tumor Repository. For each lot of cells, the Repository performed Applied Biosystems AmpFLSTR Identifiler testing with PCR amplification to confirm consistency with the published Identifier STR profile for each cell line. Cells were kept in continuous culture for no more than 20 passages. The optimal seeding densities for each of the cell lines at each time point assessed were determined prior to performing the concentration response studies. Briefly, the NCI60 human tumor lines were grown as monolayers in RPMI 1640 medium supplemented with 10% FBS and 2 mmol/L L-glutamine.
# An additional 9 lines were from the NCI60 cell line panel including MDA-MB-231 breast carcinoma, MDA-MB-468 breast carcinoma, MCF7 breast carcinoma, Hs578T breast carcinoma, MALME-3M melanoma, SK-MEL-2 melanoma, SK-OV-3 ovarian carcinoma, DU-145 prostate carcinoma, PC-3 prostate carcinoma, all cell lines along with major genetic alterations are listed on Table 2. Pooled donor human umbilical vein endothelial cells (HUVEC, Lonza, cat. CC-2519) and human mesenchymal stem cells (hMSC, Lonza, cat. PT-2501) were purchased from Lonza (Walkersville, MD).
# PDMR cell lines were grown in complete medium (DC medium): Dulbecco's modified Eagle's medium (DMEM)/F12 supplemented with 5% fetal bovine serum (FBS), 2 mM L-glutamine, 100 U/mL penicillin and 100 µg/ml streptomycin, 0.4 µg/ml hydrocortisone, 10 ng/ml epidermal growth factor (EGF) recombinant human protein, 24 µg/mL adenine, and 0.1 mg/mL primocin. During culture from frozen stock vials, PDMR cells were cultured in the same medium containing 10 µM Y-27632 (see Table 3). The PDCs were cultured in complete DMEM/F12 media without 10 microM Y-27632 dihydrochloride for at least two passages prior to the screen. The pooled donor HUVEC and hMSC were cultured in endothelial cell growth medium 2 (PromoCell, Heidelberg, Germany, cat. C-22011) and mesenchymal stem cell growth medium 2 (PromoCell, cat. C-28009), respectively. For all experiments, HUVEC and hMSC were used at passages </=5.
# […]
# 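Further: spheroids exposed to compounds for 7 days before readout.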
# 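Wherever viability, T/C is given: CTG3D luminescence normalised so that 100% = DMSO vehicle control.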
structure (smiles),measurement,setting,value
Cn1cnc2c(F)c(Nc3ccc(Br)cc3Cl)c(C(=O)NOCCO)cc21 + CC(C)NCC(C(=O)N1CCN(c2ncnc3c2C(C)CC3O)CC1)c1ccc(Cl)cc1,IC50,second compound 0.1 µM,< 9.49 nM
same,IC50,second compound 0.316 µM,< 9.49 nM
same,IC50,second compound 1 µM,< 9.49 nM
same,IC50,second compound 3.16 µM,< 9.49 nM
same,IC50,second compound 10 µM,< 9.49 nM
same,"viability, T/C","second compound 0.1 µM, first compound 0.00949 µM",40.2%
same,"viability, T/C","second compound 0.1 µM, first compound 0.03 µM",29.9%
same,"viability, T/C","second compound 0.1 µM, first compound 0.0949 µM",23.6%
same,"viability, T/C","second compound 0.1 µM, first compound 0.3 µM",20.6%
same,"viability, T/C","second compound 0.1 µM, first compound 0.949 µM",16.6%
same,"viability, T/C","second compound 0.1 µM, first compound 3 µM",12.3%
same,"viability, T/C","second compound 0.316 µM, first compound 0.00949 µM",17.2%
same,"viability, T/C","second compound 0.316 µM, first compound 0.03 µM",15.4%
same,"viability, T/C","second compound 0.316 µM, first compound 0.0949 µM",11.9%
same,"viability, T/C","second compound 0.316 µM, first compound 0.3 µM",11.2%
same,"viability, T/C","second compound 0.316 µM, first compound 0.949 µM",7.05%
same,"viability, T/C","second compound 0.316 µM, first compound 3 µM",5%
same,"viability, T/C","second compound 1 µM, first compound 0.00949 µM",14.4%
same,"viability, T/C","second compound 1 µM, first compound 0.03 µM",10.5%
same,"viability, T/C","second compound 1 µM, first compound 0.0949 µM",6.55%
same,"viability, T/C","second compound 1 µM, first compound 0.3 µM",4.68%
same,"viability, T/C","second compound 1 µM, first compound 0.949 µM",4.96%
same,"viability, T/C","second compound 1 µM, first compound 3 µM",2.43%
same,"viability, T/C","second compound 3.16 µM, first compound 0.00949 µM",11.3%
same,"viability, T/C","second compound 3.16 µM, first compound 0.03 µM",5.57%
same,"viability, T/C","second compound 3.16 µM, first compound 0.0949 µM",3.02%
same,"viability, T/C","second compound 3.16 µM, first compound 0.3 µM",3.4%
same,"viability, T/C","second compound 3.16 µM, first compound 0.949 µM",1.75%
same,"viability, T/C","second compound 3.16 µM, first compound 3 µM",1.07%
same,"viability, T/C","second compound 10 µM, first compound 0.00949 µM",2.67%
same,"viability, T/C","second compound 10 µM, first compound 0.03 µM",1.92%
same,"viability, T/C","second compound 10 µM, first compound 0.0949 µM",1.37%
same,"viability, T/C","second compound 10 µM, first compound 0.3 µM",1.13%
same,"viability, T/C","second compound 10 µM, first compound 0.949 µM",2.24%
same,"viability, T/C","second compound 10 µM, first compound 3 µM",0.56%
